In patent US5653957A, “Halogenated sulfidohydroboranes for nuclear medicine and boron neutron capture therapy” (Associated Universities, Inc., priority 1996, dated 1997):

What was measured:
mice [1] = experiment: Subacute toxicity in mice judged by hematological and chemical tests of the blood 5 days after i.p. injection; assay type: in vivo, female mice (BNL Hale-Stoner strain)
Description: C) 0.9% NaCl in water (saline) (7 mice).
Injection volumes were all 0.015 mL/gbw.
Inadvertently,the BSSB group (Group A) received 17 μg ^10 B/gbw, only about one-third of the intended boron dose, 50 μg/gbw. Nevertheless, it is useful to compare the subacute toxicity of a relatively high dose of a substance, IBSSB, which had never before been tested in an animal, with that of its parent compound, BSSB, which is known to be non-lethal at about 35 μg B/gbw, i.e., twice the lower of the two boron doses used See Slatkin et al., "Boron Uptake in Melanoma, Cerebrum and Blood from Na2 B12 H11 SH and Na4 B24 H22 S2 Administered to Mice", Biochem. Pharm., 35, 1771 (1986).
See Miura et al., "Biodistribution and Toxicity of 2,4-Divinyl-nido-carboranyldeuterophorphyrin IX in Mice". Biochem. Pharm., 43, 467 (1992). It therefore appears that the periodinated borane is not more toxic than the non-iodinated borane.

[2] = mouse, in vivo
Description: Three groups of female mice (BNL Hale-Stoner strain) were given a single intraperitoneal (i.p.) injection of:
Injection volumes were all 0.015 mL/gbw. Five days after the injection, mice were euthanized by deep halothane inhalation anesthesia. Thoracotomy was performed, and about 0.7-0.9 mL blood was removed through the right ventricle. Hematological and chemical analyses were performed on blood specimens from each mouse.
(mg/dL), blood urea nitrogen [BUN] (mg/dL), blood creatinine [BCR] (mg/dL) aspartate transaminase [AST] (U/L), alanine transaminase [ALT] (U/L), alkaline phosphatase [ALP] (U/L), creatine phosphokinase [CPK] (U/L), total protein [TPR] (g/dL), albumin [ALB] (g/dL), calcium [CA] (mg/dL), chloride [CHL] (meg/L), inorganic phosphorus [P] (mg/dL), potassium [K] (meg/L), and sodium [SOD] (meg/L) .

brain tumors = details: mouse, in vivo; cited from earlier work
mice [3] = details: at about 35 μg B/gbw; cited from earlier work

## periodinated dimeric sulfidohydrododecaborane [IBSSB]
Mice [1]; mouse, in vivo
  fourteen chemical and thirteen hematological tests, BSSB (Group A) vs IBSSB (Group B): no significant differences between the two groups
  hepatotoxicity: may be slightly hepatotoxic to mice
  other differences between mice in groups B and C: No other differences were noted
  significant toxicity: no evidence of significant toxicity
Mice [1]; single i.p. 50 μg B/gbw, vs three-fold less BSSB, 5 days later
  toxicity judged by hematological and chemical tests of the blood, vs BSSB: only minimally more toxic
[2]
  alanine transaminase [ALT]: 22 U/L
  albumin [ALB]: 3.3 g/dL
  alkaline phosphatase [ALP]: 110 U/L
  aspartate transaminase [AST]: 44 U/L
  blood creatinine [BCR]: 0.5 mg/dL
  blood urea nitrogen [BUN]: 28 mg/dL
  calcium [CA]: 11.5 mg/dL
  chloride [CHL]: 116 meg/L
  creatine phosphokinase [CPK]: 35 U/L
  glucose [GLU]: 278 mg/dL
  inorganic phosphorus [P]: 9.9 mg/dL
  potassium [K]: 7.1 meg/L
  sodium [SOD]: 154 meg/L
  total protein [TPR]: 5.9 g/dL

## BSSB
Brain tumors
  accumulation in brain tumors vs the monomeric form: more readily accumulated in brain tumors than the monomeric form
Mice [3]
  lethality: non-lethal
Mice [1]; mouse, in vivo
  fourteen chemical and thirteen hematological tests, BSSB (Group A) vs IBSSB (Group B): no significant differences between the two groups
